This note sets out measurements from paper PMC11763059, “GENI as an AMPK Activator Binds α and γ Subunits and Improves the Memory Dysfunction of Alzheimer’s Disease Mouse Models via Autophagy and Neuroprotection” (Antioxidants, 2025).

One assay relates to PC12 cells. The assay is described as follows: Neuroprotection assay (MTT) on H2O2-damaged PC12 cells. Particulars: GENI 1, 3, or 10 μM 24 h, then 0.8 mM H2O2 1 h. The assay is classed as cell-based. The protocol:
We seeded 5 × 10^4 PC12 cells in each well of a 24-well plate and incubated the cells for 24 h at 37 °C in 5% CO2. The medium was changed to 1 mL of serum-free Dulbecco’s modified Eagle’s medium (DMEM; Thermo Scientific, Shanghai, China) containing the different test samples. To determine the optimal concentration of hydrogen peroxide (H2O2), we treated cells with 0.5% dimethyl sulfoxide (DMSO) for 24 h and then incubated the cells with different concentrations of H2O2 for 1 h. In this work, 0.8 mM H2O2 was selected as the best dose for the following experiment. To study the neuroprotective effects of GENI, we treated PC12 cells with resveratrol (RES 10 μM) or GENI (1, 3, or 10 μM) for 24 h and 0.8 mM H2O2 for 1 h. The medium was changed to 500 μL of serum-free DMEM containing 200 μg/mL 3-(4,5-dimethyltaizol-2-yl)-2,5-diphenyltetrazolium bromide (MTT) and incubated for an additional 2 h. The medium was completely removed, and 200 μL of DMSO was added to each well to dissolve the formed formazan crystals. The resulting formazan was detected at 570 nm using a microplate reader (Bio-Tec Instruments Inc., Winooski, VT, USA).

In assay [1] the target is T1, AMPK-s7 (γ subunit- D316A) (Rattus norvegicus, UniProt P54645+P80385, D316A).
T1 construct: His (N); made in house
Description: SPR analysis, AMPK mutant s7. Type of assay: binding. The protocol:
(§1) Mammalian AMPK subunits (His-α1, β1, and γ1) were cloned into a pET-3d vector, and protein expression and purification were similar to the literature.
(§2) SPR analysis was performed with a Biacore T200 instrument (GE Healthcare). Firstly, the purred His-tagged AMPK containing α1β1γ1 protein was captured onto an activated carboxymethylated 5 (CM5) chip using amine coupling to levels ranging from 4000 RU to 6000 RU. Secondly, GENI was dissolved in PBS-P buffer solution (0.05% (v/v) Tween 20 and PBS), and the concentration of GENI was 64 μM. Thirdly, the solution of GENI was diluted to 32 μM, 16 μM, 8 μM, 4 μM, 2 μM, 1 μM and 0.5 μM with PBS-P buffer solution. The sample was filtered by pumping through a […] membrane. A gradient concentration of GENI was injected at a flow rate of 30 μL/min in a running buffer (0.05% (v/v) Tween 20 and PBS). The data were analyzed with Biacore evaluation software (T200 version 2.0) and fitted to the 1:1 Langmuir binding model, and the kinetic parameters were derived.
The non-covalent interaction between drugs and proteins is an important way to exert drug efficacy, and its mode of action and binding affinity usually determine the utilization and biological activity of drugs. AMPK is a heterotrimer complex consisting of an α subunit containing the kinase domain and two regulatory subunits (β- and γ-). Different action sites have varied or even opposite pharmacological effects. The molecular mechanism of interaction between the protein and molecule should be investigated thoroughly. After co-incubation of GENI and AMPK, LC-MS/MS measurements were performed to predict the binding sites. As shown in Extended Data Figure S2, ASP148, ASP157 and ASP166 of the AMPK α subunits and LYS148, ASP156, LYS309, and ASP316 of the AMPK γ subunit were possible to the binding sites of GENI. […] Thus, all of these seven sites affected the binding of GENI and AMPK to varying degrees, and they were located in the C lobe kinase domain of the AMPK α subunit, and the CBS2 and CBS4 domain of the AMPK γ subunit, respectively.

Assay [2] concerns the target T2, AMPK-s1 (α subunit- D148A) (Rattus norvegicus, UniProt P54645+P80385, D159A).
T2 construct: His (N); made in house
The assay is described as follows: SPR analysis, AMPK mutant s1. Type of assay: binding. On the procedure:
as §1, §2
The non-covalent interaction between drugs and proteins is an important way to exert drug efficacy, and its mode of action and binding affinity usually determine the utilization and biological activity of drugs. AMPK is a heterotrimer complex consisting of an α subunit containing the kinase domain and two regulatory subunits (β- and γ-). […]

Assay [3] deals with AMPK/mTOR/ULK1/LC3B signaling pathway. Description: Western blot of autophagy signaling pathway proteins. Type of assay: cell-based. The conditions noted are these: after giving GENI; PC12 cells and mouse hippocampus and cerebral cortex (Extended Data Figure S3a–f). The protocol: Western blot analysis for p-AMPK α, AMPK α, p-mTOR, mTOR, p-ULK1, ULK1, and LC3-I/II was conducted according to the information described in the materials and methods section of Supplementary Information.
1.3. Western blot analysis.
For PC12 cell samples, we seeded 2 × 10^6 PC12 cells in each 60 mm dish containing 5 mL of DMEM and incubated the dish for 24 h. For the dose-dependent experiment of GENI, GENI (1, 3 and 10 μM) was added to the dishes and incubated for a period of time (2 hours for p-AMPK α, AMPK α, 48 hours for p-mTOR, mTOR and p-ULK1, ULK1; 8 hours for LC3-I/II). Cells were then collected, lysed using RAPI lysis buffer and centrifuged. The supernatants of each group were used as protein samples. […]
The supernatants of each group were used as protein samples. For animal samples, an appropriate amount of tissue, such as cerebral cortex and hippocampus (50–100 mg), of each group was weighed, and we added lysis buffer with 1:9 ratios. After grinding and centrifuging, the supernatants of each group were used as protein samples. The protein concentration was measured with a BCA assay kit (Beijing Cowin Biotech Company, Beijing, China). Sodium dodecyl sulphate polyacrylamide gel electrophoresis (SDS-PAGE) was used to separate proteins (15 μg), which were transferred to PVDF membranes. The membrane was incubated with primary and secondary antibodies (Supplementary Table S5 for details). Antigens were visualised using a high-sensitivity chemiluminescence detection kit (Beijing Cowin Biotech Company, Beijing, China). Bands were quantitatively measured using ImageJ software (National Institutes of Health, Bethesda, MD, USA).

Setting [4] is: SPR, association rate, read-out: Ka.

T1 sequence (P54645 13-559 limits assumed): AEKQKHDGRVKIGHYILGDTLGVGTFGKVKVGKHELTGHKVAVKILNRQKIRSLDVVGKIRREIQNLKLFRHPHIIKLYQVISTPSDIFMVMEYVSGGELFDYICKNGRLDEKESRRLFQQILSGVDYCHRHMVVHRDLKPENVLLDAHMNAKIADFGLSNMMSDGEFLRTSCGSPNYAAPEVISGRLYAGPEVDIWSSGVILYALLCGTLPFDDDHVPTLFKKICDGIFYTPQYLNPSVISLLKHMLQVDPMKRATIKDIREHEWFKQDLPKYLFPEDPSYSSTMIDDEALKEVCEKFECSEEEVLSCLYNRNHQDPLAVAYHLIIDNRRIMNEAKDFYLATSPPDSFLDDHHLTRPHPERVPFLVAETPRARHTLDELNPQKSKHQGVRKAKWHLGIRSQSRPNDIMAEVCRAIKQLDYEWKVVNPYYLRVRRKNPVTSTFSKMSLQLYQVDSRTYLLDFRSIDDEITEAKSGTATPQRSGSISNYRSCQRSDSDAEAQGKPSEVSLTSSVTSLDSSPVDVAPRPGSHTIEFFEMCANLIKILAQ
T1 sequence (P80386 whole entry partner): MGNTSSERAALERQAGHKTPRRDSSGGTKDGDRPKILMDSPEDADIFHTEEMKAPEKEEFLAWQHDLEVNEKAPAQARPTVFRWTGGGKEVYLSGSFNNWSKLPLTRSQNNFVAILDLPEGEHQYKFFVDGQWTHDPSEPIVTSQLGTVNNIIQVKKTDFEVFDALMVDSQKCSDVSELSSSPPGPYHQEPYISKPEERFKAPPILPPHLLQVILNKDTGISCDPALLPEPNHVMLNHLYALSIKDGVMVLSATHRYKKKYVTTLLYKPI
T1 sequence (P80385 whole entry D316A): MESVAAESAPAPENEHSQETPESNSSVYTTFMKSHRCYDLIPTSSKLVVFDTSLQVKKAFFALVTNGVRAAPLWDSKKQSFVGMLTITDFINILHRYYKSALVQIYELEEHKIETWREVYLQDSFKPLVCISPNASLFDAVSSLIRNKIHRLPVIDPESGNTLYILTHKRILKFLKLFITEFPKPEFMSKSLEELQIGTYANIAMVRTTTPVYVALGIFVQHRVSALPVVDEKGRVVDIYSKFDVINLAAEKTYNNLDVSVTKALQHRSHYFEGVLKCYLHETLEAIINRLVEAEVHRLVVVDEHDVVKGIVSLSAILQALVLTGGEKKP
T2 sequence (P54645 13-559 D159A limits assumed): as the sequence (P54645 13-559 limits assumed) above, with D147A counted along it
T2 sequence (P80386 whole entry partner): as the sequence (P80386 whole entry partner) above
T2 sequence (P80385 whole entry): as the sequence (P80385 whole entry D316A) above, with A316D counted along it

Consider `CC(C)CCOC(=O)C1=CO[C@@H](O[C@@H]2O[C@H](CO)[C@@H](O)[C@H](O)[C@H]2O)C2C(CO)=CCC12` (stereo partly shown) [GENI, Geniposidic 4-isoamyl ester], for which, in the assay with PC12 cells, the “survival rate of PC12 cells induced by H2O2” value is reported as “significantly improve”. In assay [1] (SPR), this molecule showed a Kd of 6.46 µM. In assay [1] (setting [4]), the kon was found to be 808 M⁻¹ s⁻¹. The “response (RU) in SPR” value in assay [1] (point mutation of D316, versus wild-type) is “significantly reduced”. In assay [2] (D148 replaced with A148), the “dose-dependent response in SPR” value is listed as “No significant dose-dependent response”. In addition, the kon in assay [2] (setting [4]) turned out to be 9360 M⁻¹ s⁻¹. In assay [3], the “LC3B at protein level” value is given as “increase”, the “phosphorylate-AMPK at protein level” value was “increase”, the “phosphorylate-ULK1 at protein level” value was “increase” and the “phosphorylate-mTOR at protein level” value is “reduction”.
